Experimental data: patent publication US20250243160A1, “INDOLE DERIVATIVES FOR TARGETING AUTOPHAGY” (Automera PTE. LTD, priority 2024, published 2025)

Legend:
Recombinant p62 protein = Recombinant p62 protein (Homo sapiens, UniProt Q13501); test: Surface plasmon resonance (SPR) compound binding to p62; details: 15° C
Method: Recombinant p62 protein was buffer exchanged into Biacore SPR running buffer (Cytiva 100671) using the Slide-A-Lyzer Mini Dialysis system 7K MWCO (Thermo Fisher Scientific, Cat no. 69560). The final protein concentration was determined using the Nanodrop One spectrophotometer (Thermo Fisher Scientific, cat no. ND-ONE-W), with calibration for the dialysis buffer.
The prepared protein was diluted in sodium acetate buffer (NaAc, pH 5.5, Cytiva) to concentrations ranging from approximately 0.25-40 μg/mL. Post-immobilization, the protein required approximately 16 hours of equilibration in running buffer supplemented with 1% DMSO at 15° C. to ensure adequate surface equilibration and protein reorganization.
All SPR experiments were conducted at a constant temperature of 15° C. The SPR chip surface was activated using EDC/NHS for a contact time of 6-10 min at a flow rate of 10 μL/min. This was followed by protein immobilization for 2100 seconds and ethanolamine capping for 420 seconds, both at the same flow rate. Immediately after immobilization, the NH2-REEE peptide was analyzed in Single Cycle Kinetics mode (SCK) to verify surface activity, ensuring it binds the sample with the published affinity (˜20 μM by SPR).
For general compound binding studies, experiments were performed at 15° C. using a running buffer composed of 10 mM HEPES, 150 mM NaCl, 1 mM DTT, 0.05% Tween 20, and 1% DMSO at pH 7.4. The test compound was initially prepared at a 20 mM concentration in DMSO and subsequently titrated in 2-fold dilutions. For each assay, 2 μL of the compound was mixed with 198 μL of the running buffer, and the mixture was thoroughly pipetted approximately 15 times for homogenization.
A series of blank injections (0 μM concentration) were included for double referencing, with at least 8 or 16 per plate depending on the format. Typical injection parameters were 120 seconds for association and 180 seconds for dissociation at a flow rate of […]. A four-point solvent correction was prepared with DMSO concentrations ranging from 2% to 0.5% in the buffer. Post each compound injection, the system's needles were washed with 50% DMSO.
Analysis of the SPR data was conducted using the Cytiva Evaluation software. The binding levels at the late time-point of each interaction were corrected for reference, then normalized to percentage bound values to account for variations in immobilization levels, protein molecular weight, and compound molecular weight.
Compound binding studies were carried out according to experimental procedures above and SPR % occupancy was determined and summarized in Table 7.

p62 puncta = p62 puncta immunocytochemistry imaging in HeLa cells; type: cell-based; details: 24 hours treatment, relative to vehicle control (DMSO)
Method: HeLa cells were seeded in coated 96-well plates (10,000 cells) and allowed to adhere overnight. After 24 hours of treatment with either vehicle (DMSO) or test compounds, the media was discarded, and cells were rinsed with ice-cold 1×PBS before fixation by 4% formaldehyde or paraformaldehyde for 20 min. Cells were then washed with 1×PBS and permeabilized with 0.1% Triton X-100 in PBS for 20 min and blocked with Blocking Buffer in PBS for 1 hour. The cells were incubated thereafter for 1 hour with anti-p62 primary antibody in Blocking Buffer, followed by incubation with secondary antibody for 1 hour. DAPI dye was used to visualize nuclei of fixed cells. The blocking buffer used were 5% Fetal Bovine Serum (FBS, ThermoFIsher Scientific, 10270106) and Li-cor Intercept (PBS) Blocking Buffer (Li-cor, 927-70001). The primary antibody used was mouse anti-p62 primary antibody (Novus Biologicals, H00008878-M01). The secondary antibodies used were goat anti-mouse Alexa Fluor Plus 488 secondary antibody (Invitrogen, GOXMS) and goat anti-mouse Alexa Fluor 488 secondary antibody (Invitrogen, A-11029). The DAPI dyes used were DAPI dye (Invitrogen, 62248) and DAPI dye (Invitrogen, D1306).
For the EVOS M7000 System, cells were imaged on the EVOS M7000 microscope using a 20× air objective (Nikon, N.A 0.45). DAPI and p62 channels were illuminated with LED light cubes using integrated hard-coated filter sets for DAPI (357/447 nm) and GFP (470/525 nm) respectively. Images were analysed for p62 puncta count on the Celeste 6.0 software.
For the Operetta CLS System, cells were imaged on the Operetta CLS using a 63× water objective on the DAPI and Alexa 488 channels. Images were analysed for p62 puncta count on the Harmony 5.1 software.
HeLa cells were treated with compounds for 24 hours to evaluate the effect of these compounds on p62 puncta activity. The resulting changes in levels of p62 puncta were assessed by imaging, either on the EVOS M7000 or Operetta CLS systems as described in experimental procedures. The fold change of p62 puncta levels induced by compound treatment relative to vehicle control (DMSO) was determined and summarized in Table 10.

Chain of Recombinant p62 protein (Q13501 whole entry, species assumed): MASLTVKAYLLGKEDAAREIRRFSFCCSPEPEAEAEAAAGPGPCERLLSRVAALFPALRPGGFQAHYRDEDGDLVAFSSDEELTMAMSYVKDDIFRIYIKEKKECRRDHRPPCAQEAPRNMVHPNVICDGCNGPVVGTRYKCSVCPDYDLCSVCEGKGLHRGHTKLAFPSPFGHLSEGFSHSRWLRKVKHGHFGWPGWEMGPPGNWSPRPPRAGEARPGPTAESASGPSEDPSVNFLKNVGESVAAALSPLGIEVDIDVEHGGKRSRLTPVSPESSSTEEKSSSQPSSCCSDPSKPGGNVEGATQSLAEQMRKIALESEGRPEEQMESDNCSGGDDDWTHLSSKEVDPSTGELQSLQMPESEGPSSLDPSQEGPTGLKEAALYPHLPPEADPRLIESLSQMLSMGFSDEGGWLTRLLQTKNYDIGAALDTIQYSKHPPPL

SMILES: OCCNCc1ccc2ccn(Cc3ccccc3)c2c1 [Compound 2]
- receptor occupancy at 100 µM (Recombinant p62 protein): < 30%

SMILES: O=C(NCCO)c1cccc2c1ccn2Cc1ccccc1 [Compound 4, 1-benzyl-N-(2-hydroxyethyl)-1H-indole-4-carboxamide]
- receptor occupancy at 100 µM (Recombinant p62 protein): < 30%

SMILES: O=C(CCO)Nc1cccc2c1ccn2Cc1ccccc1 [Compound 8]
- receptor occupancy at 100 µM (Recombinant p62 protein): < 30%

SMILES: OCCNCc1cccc2c1ccn2Cc1ccccc1Cl [Compound 12]
- receptor occupancy at 100 µM (Recombinant p62 protein): 30 to 70%

SMILES: OCCNCc1cccc2c1ccn2Cc1ccncc1 [Compound 14]
- receptor occupancy at 100 µM (Recombinant p62 protein): < 30%

SMILES: COc1ccc(Cn2ccc3c(CNCCO)cccc32)cc1 [Compound 15]
- receptor occupancy at 100 µM (Recombinant p62 protein): 30 to 70%

SMILES: O=C(c1ccccc1)n1ccc2c(CNCCO)cccc21 [Compound 16, (4-(((2-hydroxyethyl)amino)methyl)-1H-indol-1-yl)(phenyl)methanone]
- receptor occupancy at 100 µM (Recombinant p62 protein): > 70%

SMILES: O=S(=O)(c1ccccc1)n1ccc2c(CNCCO)cccc21 [Compound 17, 2-(((1-(phenylsulfonyl)-1H-indol-4-yl)methyl)amino)ethan-1-ol]
- receptor occupancy at 100 µM (Recombinant p62 protein): 30 to 70%

SMILES: CC(C)(C)OC(=O)CCCCOCCNCc1cc(F)cc2c1ccn2Cc1ccc(Cl)cc1 [Compound 147]
- p62 puncta (fold change of p62 puncta levels) (p62 puncta): + (<2-fold change in p62 puncta levels relative to DMSO control)

SMILES: C#CCCCCCOCCNCc1cc(F)cc2c1ccn2Cc1ccc(Cl)cc1 [Compound 148]
- p62 puncta (fold change of p62 puncta levels) (p62 puncta): + (<2-fold change in p62 puncta levels relative to DMSO control)

SMILES: CC(C)(C)OC(=O)CCCCCCCCOCCNCc1cc(F)cc2c1ccn2Cc1ccc(Cl)cc1 [Compound 149]
- p62 puncta (fold change of p62 puncta levels) (p62 puncta): + (<2-fold change in p62 puncta levels relative to DMSO control)

SMILES: CC(C)(C)OC(=O)CCCCCOCCNCc1cc(F)cc2c1ccn2Cc1ccc(Cl)cc1 [Compound 150]
- p62 puncta (fold change of p62 puncta levels) (p62 puncta): + (<2-fold change in p62 puncta levels relative to DMSO control)

SMILES: C#CCCCCCCOCCNCc1cc(F)cc2c1ccn2Cc1ccc(Cl)cc1 [Compound 151]
- p62 puncta (fold change of p62 puncta levels) (p62 puncta): + (<2-fold change in p62 puncta levels relative to DMSO control)

SMILES: CCOC(=O)C1CCN(C(=O)COCCNCc2cc(F)cc3c2ccn3Cc2ccc(Cl)cc2)CC1 [Compound 152]
- p62 puncta (fold change of p62 puncta levels) (p62 puncta): + (<2-fold change in p62 puncta levels relative to DMSO control)

SMILES: CC(C)(C)OC(=O)CCCOCCNCc1cc(F)cc2c1ccn2Cc1ccc(Cl)cc1 [Compound 154]
- p62 puncta (fold change of p62 puncta levels) (p62 puncta): ++ (>2-fold change in p62 puncta levels relative to DMSO control)

SMILES: COC(=O)C1(COCCNCc2cc(F)cc3c2ccn3Cc2ccc(Cl)cc2)COC1 [Compound 155]
- p62 puncta (fold change of p62 puncta levels) (p62 puncta): + (<2-fold change in p62 puncta levels relative to DMSO control)

SMILES: CC(C)(C)OC(=O)N1CCN(CCOCCNCc2cc(F)cc3c2ccn3Cc2ccc(Cl)cc2)CC1 [Compound 156]
- p62 puncta (fold change of p62 puncta levels) (p62 puncta): ++ (>2-fold change in p62 puncta levels relative to DMSO control)

SMILES: CC(C)(C)OC(=O)NCCCCCOCCNCc1cc(F)cc2c1ccn2Cc1ccc(Cl)cc1 [Compound 157]
- p62 puncta (fold change of p62 puncta levels) (p62 puncta): ++ (>2-fold change in p62 puncta levels relative to DMSO control)

SMILES: CC(C)(C)OC(=O)NCCCCCCCCOCCNCc1cc(F)cc2c1ccn2Cc1ccc(Cl)cc1 [Compound 158]
- p62 puncta (fold change of p62 puncta levels) (p62 puncta): ++ (>2-fold change in p62 puncta levels relative to DMSO control)

SMILES: CC(C)(C)OC(=O)NCCCCCCOCCNCc1cc(F)cc2c1ccn2Cc1ccc(Cl)cc1 [Compound 159]
- p62 puncta (fold change of p62 puncta levels) (p62 puncta): ++ (>2-fold change in p62 puncta levels relative to DMSO control)

SMILES: CC(C)(C)OC(=O)Nc1ccc(COCCNCc2cc(F)cc3c2ccn3Cc2ccc(Cl)cc2)cc1 [Compound 160]
- p62 puncta (fold change of p62 puncta levels) (p62 puncta): ++ (>2-fold change in p62 puncta levels relative to DMSO control)

SMILES: CC(C)(C)OC(=O)N1CCC(CCOCCNCc2cc(F)cc3c2ccn3Cc2ccc(Cl)cc2)CC1 [Compound 161]
- p62 puncta (fold change of p62 puncta levels) (p62 puncta): ++ (>2-fold change in p62 puncta levels relative to DMSO control)

SMILES: CC(C)(C)OC(=O)Nc1cccc(COCCNCc2cc(F)cc3c2ccn3Cc2ccc(Cl)cc2)c1 [Compound 162]
- p62 puncta (fold change of p62 puncta levels) (p62 puncta): ++ (>2-fold change in p62 puncta levels relative to DMSO control)

SMILES: CC(C)(C)OC(=O)NCCCOCCNCc1cc(F)cc2c1ccn2Cc1ccc(Cl)cc1 [Compound 163]
- p62 puncta (fold change of p62 puncta levels) (p62 puncta): ++ (>2-fold change in p62 puncta levels relative to DMSO control)

SMILES: CC(C)(C)OC(=O)N1CC(COCCNCc2cc(F)cc3c2ccn3Cc2ccc(Cl)cc2)C1 [Compound 164]
- p62 puncta (fold change of p62 puncta levels) (p62 puncta): ++ (>2-fold change in p62 puncta levels relative to DMSO control)

SMILES: CC(C)(C)OC(=O)NC1(COCCNCc2cc(F)cc3c2ccn3Cc2ccc(Cl)cc2)CC1 [Compound 165]
- p62 puncta (fold change of p62 puncta levels) (p62 puncta): ++ (>2-fold change in p62 puncta levels relative to DMSO control)

SMILES: CC(C)(C)OC(=O)N1CCC(OCCNCc2cc(F)cc3c2ccn3Cc2ccc(Cl)cc2)C1 (centres unmarked) [Compound 166]
- p62 puncta (fold change of p62 puncta levels) (p62 puncta): ++ (>2-fold change in p62 puncta levels relative to DMSO control)

SMILES: CC(C)(C)OC(=O)N1CC(OCCNCc2cc(F)cc3c2ccn3Cc2ccc(Cl)cc2)C1 [Compound 167]
- p62 puncta (fold change of p62 puncta levels) (p62 puncta): ++ (>2-fold change in p62 puncta levels relative to DMSO control)

SMILES: COC(=O)c1ccc(OCCOCCNCc2cc(F)cc3c2ccn3Cc2ccc(Cl)cc2)cc1 [Compound 168]
- p62 puncta (fold change of p62 puncta levels) (p62 puncta): ++ (>2-fold change in p62 puncta levels relative to DMSO control)

SMILES: COC(=O)CCOCCOCCOCCNCc1cc(F)cc2c1ccn2Cc1ccc(Cl)cc1 [Compound 169]
- p62 puncta (fold change of p62 puncta levels) (p62 puncta): + (<2-fold change in p62 puncta levels relative to DMSO control)

SMILES: C#CCCCCCCCCOCCNCc1cc(F)cc2c1ccn2Cc1ccc(Cl)cc1 [Compound 170]
- p62 puncta (fold change of p62 puncta levels) (p62 puncta): ++ (>2-fold change in p62 puncta levels relative to DMSO control)

SMILES: COC(=O)c1ccc(N2CCC(COCCNCc3cc(F)cc4c3ccn4Cc3ccc(Cl)cc3)CC2)cc1 [Compound 171]
- p62 puncta (fold change of p62 puncta levels) (p62 puncta): ++ (>2-fold change in p62 puncta levels relative to DMSO control)

SMILES: CC(C)(C)OC(=O)NCC1CC(COCCNCc2cc(F)cc3c2ccn3Cc2ccc(Cl)cc2)C1 (centres unmarked) [Compound 172]
- p62 puncta (fold change of p62 puncta levels) (p62 puncta): ++ (>2-fold change in p62 puncta levels relative to DMSO control)

SMILES: C#Cc1ccc(COCCNCc2cc(F)cc3c2ccn3Cc2ccc(Cl)cc2)cc1 [Compound 173]
- p62 puncta (fold change of p62 puncta levels) (p62 puncta): ++ (>2-fold change in p62 puncta levels relative to DMSO control)

SMILES: CC(C)(C)OC(=O)N1CCC(COCCOCCNCc2cc(F)cc3c2ccn3Cc2ccc(Cl)cc2)CC1 [Compound 174]
- p62 puncta (fold change of p62 puncta levels) (p62 puncta): ++ (>2-fold change in p62 puncta levels relative to DMSO control)

SMILES: CC(C)(C)OC(=O)NC[C@H]1CC[C@H](COCCNCc2cc(F)cc3c2ccn3Cc2ccc(Cl)cc2)CC1 [Compound 175]
- p62 puncta (fold change of p62 puncta levels) (p62 puncta): ++ (>2-fold change in p62 puncta levels relative to DMSO control)

SMILES: CC(C)(C)OC(=O)N[C@H]1CC[C@@H](COCCNCc2cc(F)cc3c2ccn3Cc2ccc(Cl)cc2)CC1 [Compound 176]
- p62 puncta (fold change of p62 puncta levels) (p62 puncta): ++ (>2-fold change in p62 puncta levels relative to DMSO control)

SMILES: CNCCOCc1cc(F)cc2c1ccn2Cc1ccc(Cl)cc1 [Compound 178]
- p62 puncta (fold change of p62 puncta levels) (p62 puncta): ++ (>2-fold change in p62 puncta levels relative to DMSO control)
